From patent US10774112B2, “Biomimetic peptide and biodegradable delivery platform for the treatment of angiogenesis- and lymphangiogenesis-dependent diseases” (THE JOHNS HOPKINS UNIVERSITY, priority 2013, dated 2020)

Key:
[1] = test system: neovasculature in laser induced CNV; assay: CNV regression model; assay type: in vivo, mice; details: mouse eye; free peptide; FIG. 14
Protocol: Bruch's membranes of both eyes of C57BL/6J mice were ruptured with a laser after anesthetizing the mice and dilating their pupils with 1% tropicamide. Seven days later, some mice were sacrificed to establish baseline neovascularization. At that time, 1 μg of SP2043 (SEQ ID NO: 1) was administered in one eye and vehicle in the fellow eye of other mice. Seven days later, all animals were perfused with fluorescein-labeled dextran, eyes removed, the retina dissected and flatmounted after making radial cuts, and fluorescence was measured. The images were digitized using a 3-color charge-coupled device video camera and a frame grabber and the area of hypervascularization was quantified by image-analysis software.

[2] = test system: human umbilical vein endothelial cells (HUVEC); assay: Proliferation assay (WST-1), HUVEC; assay type: cell-based; details: FIG. 1
Protocol: (§1) A colorimetric based proliferation assay using WST-1 (Roche, 11644807001) proliferation reagent was carried out using HREC cells, HUVEC cells, and the breast cancer cells MDA-MB-231, MCF-7, and SUM149. 2000 cells/well were plated in 96-well plates and allowed to adhere overnight. On the following day, the media was exchanged with fully supplemented media containing peptides or equivalent DMSO vehicle for the controls. Three days later, the media containing the peptides was replaced with serum-free EBM-2 media containing WST-1 reagent and the plates were incubated for four hours as per the manufacturer's recommendations. Changes in color, due to the formazan dye resulted from the cleavage of the tetrazolium salt WST-1 by the mitochondrial succinate-tetrazolium reductase, were read on a Victor V fluorescence plate reader (Perkin Elmer, Mass.) by measuring the absorbance at 450 nm. Dose response curves of percent live cells (in comparison to untreated cells, but incubated in complete media with 0.2% DMSO) were created. Assays were performed in at least two independent replicates and each replicate was performed using three experimental triplicates.

[3] = test system: angiogenesis; assay: Angiogenesis in vivo (lectin staining, IHC)
[4] = test system: lymphatic endothelial cell (LEC); assay: LEC tube formation assay; assay type: cell-based; details: FIG. 5
[5] = test system: lymphatic endothelial cell (LEC); assay: LEC adhesion assay; assay type: cell-based; details: FIG. 4
Protocol: (§2) Similar to the migration assays, the inhibition activity of the peptide in cellular adhesion was assessed using the RT-CIM technology. In this case, 25,000 cells/well were plated in 16 wells E-plates (Roche, Basel Switzerland) in the presence or absence of the peptide. The adhesion was monitored over time (3 hours) by measuring changes in the electrical impedance, which is a direct measure of the cells adhering on the electrodes. Assays were performed in at least two independent replicates and each replicate was performed using two experimental duplicates.

[6] = test system: estrogen receptor positive cell line MCF-7; assay: Proliferation assay (WST-1), MCF-7; assay type: cell-based; details: in vitro; FIG. 7
Protocol: as §1

[7] = test system: HUVEC; assay: HUVEC tube formation assay; assay type: cell-based, human; details: 25 μM peptide; FIG. 3 A-B
Protocol: Tube Formation Inhibition Assays.
The compositions also were tested for their ability to inhibit tube formation, a process critical in angiogenesis. Endothelial cells spontaneously form a network of tubes when plated on extracts of extracellular matrix. This in vitro assay combines aspects of adhesion and migration and it is routinely used in angiogenesis research (Oliveira-Ferrer et al., 2008). The ability to inhibit tube formation is a comprehensive assessment of the anti-angiogenic potential. The protocol was described by Arnaoutova et al. (2009) and it consists of plating HUVEC on top of basement membrane extract. After incubation at 37° C., the cells naturally rearrange themselves in a network of tubes. Thus, 50 μL/well of Matrigel (BD Biosciences, San Jose, Calif.) was plated in a cold 96 well plate and incubated at 37° C. for 30 min for polymerization. 15,000 cells/well were added to the top of the gel and incubated in complete media in the presence or absence of peptide for 19 hours. Images were captured using the CCD Sensicam mounted on a Nikon microscope (Eclipse T-100). Assays were performed in at least two independent replicates and each replicate was performed using three experimental replicates and one image of a randomly chosen field was acquired per well.

[8] = test system: MDA-MB-231 orthotopic tumors; assay: MDA-MB-231 orthotopic tumor xenografts in SCID mice; assay type: in vivo; details: 33 days, 20 mg of SP2043/kg, intraperitoneal injection, FIG. 9
Protocol: Orthotopic breast tumors were initiated in SCID mice using human triple-negative breast cancer cells MDA-MB-231. 2×10^6 cells per 100 μL aliquot of single cell suspension were injected in the breast mammary fat pad. Tumors reached volumes of 75-100 mm^3 in approximately 14-21 days. Mice were randomized and arranged in groups (8 mice per group) with similar tumor volumes (no statistical difference among averages) and treatment was commenced. […] Tumors were measured every fourth day using calipers and the tumor volume was calculated using the formula V=ab^2/2, where “a” is the larger and “b” is the smaller diameter.

[9] = test system: insulin growth factor 1 (IGF1) signaling; assay: IGF1 signaling in vitro in MEC; assay type: cell-based; details: FIG. 6
[10] = test system: human retinal endothelial cells (HREC); assay: Adhesion assay (RT-CIM), HREC; assay type: cell-based; details: FIG. 2
Protocol: as §2

[11] = test system: hepatocyte growth factor (HGF) signaling; assay: HGF signaling in vitro in LEC; assay type: cell-based; details: FIG. 6
[12] = test system: hepatocyte growth factor (HGF) signaling; assay: HGF signaling in vitro in MEC; assay type: cell-based; details: FIG. 6
[13] = test system: c-Met; assay: Phosphorylation of c-Met in vivo; details: FIG. 10
[14] = test system: triple-negative breast cancer cell line MDA-MB-231; assay: Proliferation assay (WST-1), MDA-MB-231; assay type: cell-based, human; details: in vitro; FIG. 7
Protocol: as §1

[15] = test system: vascular leakage; assay: Vascular leakage in Tet/Opsin/VEGF mouse model; assay type: in vivo, mice; details: FIGS. 15A-B
Protocol: Vascular Permeability in Mouse Eyes:
Mice were injected intravitreally with 1 μg of SP2043 (SEQ ID NO: 1) in one eye, and vehicle in the fellow eye and vehicle control was injected in the other eye of adult double transgenic Tet/Opsin/VEGF mice. Three days later, the mice were given 2 mg/mL doxycycline in the drinking water for 3 days. At that time the animals were anesthetized and their pupils dilated as for standard fundoscopy. The eyes were examined to compare the number of animals that had retinal detachments under the two treatments by fundus imaging using Micron II retinal imaging and optical coherence tomography imaging using published protocols.

[16] = test system: HGF signaling; assay: HGF signaling in MDA-MB-231 cells; assay type: cell-based, human; details: FIG. 8

“LRRFSTAPFAFIDINDVINF (Artificial sequence based on human Collagen Type IV protein) [SP2043]” was tested, and the “regression of the neovasculature in laser induced CNV model” value [1] was “caused regression”, the “proliferation of HUVEC” value [2] was “inhibit” and the angiogenesis in vivo ([3]; FIG. 10) was “inhibit”. The “angiogenesis as seen by lectin staining for IHC” value ([3]; FIG. 11) was “inhibited”, the LEC tube formation [4] was “inhibit” and the “lymphatic endothelial cell adhesion” value [5] was “inhibit”. For the same sequence, the “proliferation of MCF-7” value [6] was “inhibit”, the HUVEC tube formation [7] was “inhibit” and the “inhibition of tumor growth” value [8] was “about 82%”. For the same sequence, the “IGF1 signaling in MEC” value [9] was “inhibit”, the “adhesion of HREC” value [10] was “inhibit” and the “HGF signaling in LEC” value [11] was “inhibit”. For the same sequence, the “HGF signaling in MEC” value [12] was “inhibit”, the “phosphorylation of c-Met in vivo” value [13] was “inhibit” and the “proliferation of MDA-MB-231” value [14] was “inhibit”. The “vascular leakage in Tet/Opsin/VEGF mouse model” value [15] was “inhibited” and the “HGF signaling in MDA-MB-231 cells” value [16] was “inhibit”.
